In patent US11028051B2, “Tetrahydroquinoline-based bromodomain inhibitors” (St. Jude Children's Research Hospital, priority 2016, dated 2021):
Like-named read-outs stand apart in the source and are kept apart here.

Key:
BRD3(1) = BRD3(1) (Homo sapiens (Human), UniProt Q15059); assay: BROMOscan KD determination; type: binding; conditions: Table 10
Source text: (§1) DiscoverX® can screen compounds against all ˜42 bromodomains (a service called BROMOscan) and perform follow-up KD determination. This service is considered the industrial standard for bromodomain inhibitor comparisons.

BRD3(2) = BRD3(2) (Homo sapiens (Human), UniProt Q15059); assay: BROMOscan KD determination; type: binding
BRD3(2), sequence (Q15059 306-415): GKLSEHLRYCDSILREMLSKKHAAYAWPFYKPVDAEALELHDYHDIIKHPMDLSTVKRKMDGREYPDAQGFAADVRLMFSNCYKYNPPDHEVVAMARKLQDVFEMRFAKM
Source text: as §1

BRD4(1) = BRD4(1) (Homo sapiens (Human), UniProt O60885); assay: BROMOscan KD determination; type: binding; conditions: Table 10
Source text: as §1

BRD4(2) = BRD4(2) (Homo sapiens (Human), UniProt O60885); assay: BROMOscan KD determination; type: binding
Source text: as §1

BRD2(2) = BRD2(2) (Homo sapiens (Human), UniProt P25440); assay: BROMOscan KD determination; type: binding
BRD2(2), sequence (P25440 344-453): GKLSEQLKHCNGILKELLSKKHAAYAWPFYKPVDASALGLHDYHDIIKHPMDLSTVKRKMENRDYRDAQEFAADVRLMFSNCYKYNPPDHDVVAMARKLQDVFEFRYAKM
Outline: (§2)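 First, each compound is screened at 1 μM in a BROMOscan competitive binding experiment covering about 42 bromodomains, compared with a control. Then, KD is determined for selected bromodomains in a follow-up BROMOscan run.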

BRDT(2) = BRDT(2) (Homo sapiens (Human), UniProt Q58F21); assay: BROMOscan KD determination; type: binding
Outline: as §2

BRD2(1) = BRD2(1) (Homo sapiens (Human), UniProt P25440); assay: BROMOscan KD determination; type: binding; conditions: Table 10
BRD2(1), sequence (P25440 74-180): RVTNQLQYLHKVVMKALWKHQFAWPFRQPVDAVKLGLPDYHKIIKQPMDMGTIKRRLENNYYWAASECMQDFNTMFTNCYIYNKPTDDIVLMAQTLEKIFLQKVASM
Outline: as §2

BRDT(1) = BRDT(1) (Homo sapiens (Human), UniProt Q58F21); assay: BROMOscan KD determination; type: binding; conditions: Table 10
Outline: as §2

[1] = tested on: c-Myc expression in HDMB03 cells; assay: c-Myc expression inhibition, high content microscopy (HCM); type: cell-based, human; conditions: Homo sapiens, read-out: EC50 (μM) Myc-inhibition
Procedure: 3000 human G3 medulloblastoma or 2000 mouse SHH medulloblastoma cells per well were plated into 384-well plates (6007710, Perkin Elmer) in 30 μL of supplemented neurobasal medium using a Wellmate automated dispenser (Thermo Matrix). After 24 hours, 125 nl of compound was transferred via pin tool, resulting in a final drug concentration from 2 nM to 40 μM. 72 hours after adding the drug, the plates were fixed with 4% formaldehyde for 20 min. After fixation the cells were then washed 3 times with 75 μl of PBS. The cells were then permeabilized with 0.1% Triton-X 100 for 15 minutes at 25° C. and blocked using 1% BSA in PBS for 1 hour at 25° C. The primary antibody against c-Myc Ab (#9402, Cell Signaling) at a 1:400 dilution was diluted in 1% BSA in PBS. This mixture was added to each well before incubation overnight at 4° C. Each well was then washed 3 times with PBS using a Biotek ELX405 Select plate washer, and incubated for 1 hour at 25° C. with a solution containing 1/400 goat α-rabbit-Alexa-488 (4412S, Cell Signaling) and 1 μM Hoechst 33342 to detect nuclear material (H3570, Molecular Probes). Two images were captured of each well at 10× using a GE Healthcare InCell 6000 at 405 nM to detect nuclear staining and 488 nM to detect c-Myc. All data were analyzed using the multi-target analysis algorithm of the GE InCell Analyzer Workstation software. The number of nuclear objects in each well, as well as all nuclear measurements, was determined through nuclear masks over the Hoechst staining. C-Myc staining was then measured using top-hat segmentation in the entire cell.

HDMB03 cells = assay: cell viability, CellTiter-Glo; type: cell-based, human; conditions: Homo sapiens, read-out: EC50 (μM) HDMB03
Outline: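 Medulloblastoma cells grown as neurospheres in supplemented neurobasal medium and treated for 7 days; viability read by CellTiter-Glo luminescence. Log10-transformed signal normalized to negative and positive controls; median percent inhibition of triplicates fitted with a four-parameter log-logistic model.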

BRD3(1), sequence (Q15059 34-140): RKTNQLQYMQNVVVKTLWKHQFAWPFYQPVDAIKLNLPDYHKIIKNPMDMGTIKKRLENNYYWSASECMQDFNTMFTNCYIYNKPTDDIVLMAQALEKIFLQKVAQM

Kd (BRD3(1)): 0.72 nM | 3(1)/3(2) (BRD3(2); BROMOscan KD ratio): 1.8 | Kd (BRD3(2); BROMOscan, Table 10): 0.39 nM | Kd (BRD4(1)): 27 nM | 4(1)/4(2) (BRD4(2); BROMOscan KD ratio): 64.3 | Kd (BRD4(2); BROMOscan, Table 10): 0.42 nM | [2(1)/2(2)] (BRD2(2); BROMOscan KD ratio): 36.9 | Kd (BRD2(2); BROMOscan, Table 10): 0.65 nM | T(1)/T(2) (BRDT(2); BROMOscan KD ratio): 1.0 | Kd (BRDT(2); BROMOscan, Table 10): 4.9 nM | Kd (BRD2(1)): 24 nM | Kd (BRDT(1)): 4.9 nM | EC50 ([1]; HD-MB03, Table 5): 0.03 µM | EC50 ([1]; HD-MB03, Table 7): 1.3 µM | EC50 ([1]; HD-MB03, Table 9, c-Myc expression inhibition in HDMB03 cells): 1.3 µM
SMILES: COC(=O)c1ccc(N[C@@H]2C[C@H](C)N(C(C)=O)c3ccc(-c4cccc(NC(C)=O)c4)cc32)cc1 [compound 4]
EC50 (HDMB03 cells; HD-MB03, Table 5): 0.31 µM | EC50 (HDMB03 cells; HD-MB03, Table 7): 0.75 µM | EC50 (HDMB03 cells; HD-MB03, Table 9, cancer cell proliferation inhibition): 0.75 µM
